Results taken from patent publication US7105534B2, “Imidazo[1,2-α]pyridine ether compounds as ion channel modulators” (Cardiome Pharma Corp., priority 2000, dated 2006).
Where a name gives a salt, the structure may show the parent alone.

Experiments:
Format in all cases: cell-based
hH1 Na+ current = molecular target: T1, hH1 Na+ current (Homo sapiens, UniProt Q14524); assay: Patch-clamp inhibition of cloned ion channel current in transfected HEK cells: Na; details: peak hH1 Na+ current, -100 mV to -30 mV
T1 construct: expressed in transfected cells; host or cells: HEK cells, transient transfection, vector pCDNA3
T1 sequence (Q14524 whole entry): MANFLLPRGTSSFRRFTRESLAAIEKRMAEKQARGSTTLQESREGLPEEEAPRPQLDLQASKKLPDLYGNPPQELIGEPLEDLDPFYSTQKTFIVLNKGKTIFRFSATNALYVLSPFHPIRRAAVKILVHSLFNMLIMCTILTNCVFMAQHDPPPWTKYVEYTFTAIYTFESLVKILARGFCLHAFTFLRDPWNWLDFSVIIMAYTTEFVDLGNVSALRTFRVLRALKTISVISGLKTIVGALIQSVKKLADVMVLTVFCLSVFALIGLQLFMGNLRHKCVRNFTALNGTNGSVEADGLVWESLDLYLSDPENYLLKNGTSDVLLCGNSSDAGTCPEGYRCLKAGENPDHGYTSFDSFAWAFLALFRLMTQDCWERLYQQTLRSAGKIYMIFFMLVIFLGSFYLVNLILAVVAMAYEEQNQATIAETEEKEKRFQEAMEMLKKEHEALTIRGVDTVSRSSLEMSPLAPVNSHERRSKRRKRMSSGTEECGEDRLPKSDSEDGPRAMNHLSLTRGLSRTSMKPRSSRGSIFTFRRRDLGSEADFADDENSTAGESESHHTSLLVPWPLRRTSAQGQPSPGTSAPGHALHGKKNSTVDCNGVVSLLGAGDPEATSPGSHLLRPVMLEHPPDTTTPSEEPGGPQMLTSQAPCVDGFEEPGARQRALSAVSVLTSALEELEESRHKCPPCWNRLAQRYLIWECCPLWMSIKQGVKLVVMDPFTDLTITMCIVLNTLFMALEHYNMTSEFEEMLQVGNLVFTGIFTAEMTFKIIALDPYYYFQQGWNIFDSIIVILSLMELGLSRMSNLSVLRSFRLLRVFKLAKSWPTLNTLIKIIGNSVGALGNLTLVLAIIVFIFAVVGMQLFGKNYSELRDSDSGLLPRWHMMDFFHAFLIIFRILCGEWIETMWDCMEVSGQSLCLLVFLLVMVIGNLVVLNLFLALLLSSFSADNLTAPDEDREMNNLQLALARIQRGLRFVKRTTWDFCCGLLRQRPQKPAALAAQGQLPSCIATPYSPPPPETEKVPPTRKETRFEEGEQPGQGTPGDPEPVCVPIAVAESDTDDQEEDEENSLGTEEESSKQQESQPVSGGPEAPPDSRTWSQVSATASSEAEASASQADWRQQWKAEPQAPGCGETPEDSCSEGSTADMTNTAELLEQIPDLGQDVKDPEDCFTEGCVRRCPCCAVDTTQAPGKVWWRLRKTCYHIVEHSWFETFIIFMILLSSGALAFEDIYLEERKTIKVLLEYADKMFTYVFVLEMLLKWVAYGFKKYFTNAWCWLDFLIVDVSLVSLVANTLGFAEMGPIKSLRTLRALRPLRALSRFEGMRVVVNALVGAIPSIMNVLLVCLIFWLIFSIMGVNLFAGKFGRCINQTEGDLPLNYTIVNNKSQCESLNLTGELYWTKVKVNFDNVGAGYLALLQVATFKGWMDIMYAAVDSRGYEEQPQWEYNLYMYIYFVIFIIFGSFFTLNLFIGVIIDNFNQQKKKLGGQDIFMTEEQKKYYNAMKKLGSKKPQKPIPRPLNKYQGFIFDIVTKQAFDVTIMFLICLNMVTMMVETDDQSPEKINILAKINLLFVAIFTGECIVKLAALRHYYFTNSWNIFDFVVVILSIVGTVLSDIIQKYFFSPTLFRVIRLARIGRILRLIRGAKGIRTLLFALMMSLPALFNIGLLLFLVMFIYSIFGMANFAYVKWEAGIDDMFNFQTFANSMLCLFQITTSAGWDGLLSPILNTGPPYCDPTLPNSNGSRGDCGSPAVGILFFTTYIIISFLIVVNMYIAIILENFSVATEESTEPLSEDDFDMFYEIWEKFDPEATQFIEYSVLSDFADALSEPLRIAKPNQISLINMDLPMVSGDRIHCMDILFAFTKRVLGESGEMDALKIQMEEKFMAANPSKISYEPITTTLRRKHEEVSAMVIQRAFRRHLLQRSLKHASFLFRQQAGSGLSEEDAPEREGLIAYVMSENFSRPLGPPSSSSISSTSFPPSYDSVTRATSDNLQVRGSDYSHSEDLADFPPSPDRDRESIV
Protocol: (§1) The relevant cloned ion channels (e.g. cardiac hH1, Kv1.4, Kv1.5, Kv4.2, Kv2.1, HERG etc.) are studied by transient transfection into HEK cells using the mammalian expression vector pCDNA3. Transfections for each channel type are carried out separately to allow individual study of the ion channel of interest. Cells expressing channel protein are detected by cotransfecting cells with the vector pHook-1 (Invitrogen, San Diego, Calif., USA). […] Equal concentrations of individual channel and pHook DNA are incubated with 10× concentration of lipofectAce in Modified Eagle's Medium (MEM, Canadian Life Technologies) and incubated with parent HEK cells plated on 25 mm culture dishes. After 3–4 hours the solution is replaced with a standard culture medium plus 20% fetal bovine serum and 1% antimycotic. Transfected cells are maintained at 37C in an air/5% CO2 incubator in 25 mm Petri dishes plated on glass coverslips for 24–48 hours to allow channel expression to occur. 20 min prior to experiments, cells are treated with beads coated with phOX. After 15 min, excess beads are […] off with cell culture medium and cells which had beads stuck to them are used for electrophysiological tests.
(§2) For whole-cell recording the control pipette filling solution contained (in mM): KCl, 130; EGTA, 5; MgCl2, 1; HEPES, 10; Na2ATP, 4; GTP, 0.1; and is adjusted to pH 7.2 with KOH. The control bath solution contained (in mM): NaCl, 135; KCI, 5; sodium acetate, 2.8; MgCl2, 1; HEPES, 10; CaCl2, 1; and is adjusted to pH 7.4 with NaOH. The test ion channel modulating compound is dissolved to 10 mM stock solutions in water and used at concentrations between 0.5 and 100 μM.
(§3) Coverslips containing cells are removed from the incubator before experiments and placed in a superfusion chamber (volume 250 μl) containing the control bath solution at 22C to 23C. All recordings are made via the variations of the patch-clamp technique, using an Axopatch 200A amplifier (Axon Instruments, CA). Patch electrodes are pulled from thin-walled borosilicate glass (World Precision Instruments; FL) on a horizontal micropipette puller, fire-polished, and filled with appropriate solutions. Electrodes had resistances of […] when filled with control filling solution. Analog capacity compensation is used in all whole cell measurements. In some experiments, leak subtraction is applied to data. Membrane potentials have not been corrected for any junctional potentials that arose between the pipette and bath solution. Data are filtered at 5 to 10 kHz before digitization and stored on a microcomputer for later analysis using the pClamp6 software (Axon Instruments, Foster City, Calif.). Due to the high level of expression of channel cDNA's in HEK cells, there is no need for signal averaging. The average cell capacitance is quite small, and the absence of ionic current at negative membrane potentials allowed faithful leak subtraction of data.
(§4) The concentration-response curves for changes in peak and steady-state current produced by the test compound are computer-fitted to the Hill equation: f=1−1/[1+([…])^n] [1]
(§5) where f is the fractional current (f=Idrug/Icontrol) at drug concentration [D]; IC50 is the concentration producing half-maximal inhibition and n is the Hill coefficient.
(§6) Compounds of the present invention may be evaluated by this method. […] Block is determined from the decrease in peak hH1 Na^+ current, or in steady-state Kv1.5 and integrated Kv4.2 current in the presence of drug. To record Na^+ current, cells are depolarized from the holding potential of −100 mV to a voltage of −30 mV for 10 ms to fully open and inactivate the channel. To record Kv1.5 and Kv4.2 current, cells are depolarized from the holding potential of −80 mV to a voltage of +60 mV for 200 ms to fully open the channel. Currents are recorded in the steady-state at a range of drug concentrations during stimulation every 4 s. […]

Kv1.5 = molecular target: T2, Kv1.5 (Homo sapiens, UniProt P22460); assay: Patch-clamp inhibition of cloned ion channel current in transfected HEK cells: Kv1.5; details: steady-state current, -80 mV to +60 mV
T2 construct: expressed in transfected cells; host or cells: HEK cells, transient transfection, vector pCDNA3
T2 sequence (P22460 whole entry): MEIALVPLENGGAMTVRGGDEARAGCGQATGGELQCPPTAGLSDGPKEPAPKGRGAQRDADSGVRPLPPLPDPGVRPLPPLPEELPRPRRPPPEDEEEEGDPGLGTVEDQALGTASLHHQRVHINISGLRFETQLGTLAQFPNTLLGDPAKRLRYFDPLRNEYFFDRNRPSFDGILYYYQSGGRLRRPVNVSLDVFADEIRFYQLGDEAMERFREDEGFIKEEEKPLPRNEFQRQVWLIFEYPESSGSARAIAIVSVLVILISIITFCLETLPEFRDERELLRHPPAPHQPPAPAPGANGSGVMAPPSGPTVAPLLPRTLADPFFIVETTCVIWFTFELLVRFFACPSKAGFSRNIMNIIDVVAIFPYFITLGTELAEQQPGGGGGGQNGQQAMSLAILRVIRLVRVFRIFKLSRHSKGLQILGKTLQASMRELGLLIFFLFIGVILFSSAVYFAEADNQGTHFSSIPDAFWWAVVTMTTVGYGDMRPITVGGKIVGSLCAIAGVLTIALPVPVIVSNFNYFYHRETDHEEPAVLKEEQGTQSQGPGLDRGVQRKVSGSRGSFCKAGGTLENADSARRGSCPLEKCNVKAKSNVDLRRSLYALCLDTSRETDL
Protocol: as §1, §2, §3, §4, §5, §6

Kv4.2 = molecular target: T3, Kv4.2 (Homo sapiens, UniProt Q9NZV8); assay: Patch-clamp inhibition of cloned ion channel current in transfected HEK cells: Kv4.2; details: integrated current, -80 mV to +60 mV
T3 construct: expressed in transfected cells; host or cells: HEK cells, transient transfection, vector pCDNA3
T3 sequence (Q9NZV8 1-630): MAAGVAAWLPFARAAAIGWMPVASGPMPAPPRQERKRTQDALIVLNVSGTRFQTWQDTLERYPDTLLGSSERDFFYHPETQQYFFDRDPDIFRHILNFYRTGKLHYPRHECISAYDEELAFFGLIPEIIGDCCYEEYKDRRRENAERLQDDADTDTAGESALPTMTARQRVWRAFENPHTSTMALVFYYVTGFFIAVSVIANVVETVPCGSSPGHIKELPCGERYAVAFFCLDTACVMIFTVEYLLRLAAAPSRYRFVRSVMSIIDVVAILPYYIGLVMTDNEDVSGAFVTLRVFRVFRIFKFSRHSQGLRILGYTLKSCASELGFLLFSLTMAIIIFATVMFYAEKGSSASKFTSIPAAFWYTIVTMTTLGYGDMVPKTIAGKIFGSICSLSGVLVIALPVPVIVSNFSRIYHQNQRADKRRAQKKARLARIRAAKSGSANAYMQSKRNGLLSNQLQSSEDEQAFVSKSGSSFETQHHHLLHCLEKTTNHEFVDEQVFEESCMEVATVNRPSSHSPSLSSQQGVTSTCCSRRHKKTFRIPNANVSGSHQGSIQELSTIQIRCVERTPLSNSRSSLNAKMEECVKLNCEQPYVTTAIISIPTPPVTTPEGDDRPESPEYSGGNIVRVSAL
Protocol: as §1, §2, §3, §4, §5, §6

HERG = molecular target: T4, HERG (Homo sapiens, UniProt Q12809); assay: Patch-clamp inhibition of cloned ion channel current in transfected HEK cells: HERG; details: whole-cell patch clamp
T4 construct: expressed in transfected cells; host or cells: HEK cells, transient transfection, vector pCDNA3
T4 sequence (Q12809 whole entry): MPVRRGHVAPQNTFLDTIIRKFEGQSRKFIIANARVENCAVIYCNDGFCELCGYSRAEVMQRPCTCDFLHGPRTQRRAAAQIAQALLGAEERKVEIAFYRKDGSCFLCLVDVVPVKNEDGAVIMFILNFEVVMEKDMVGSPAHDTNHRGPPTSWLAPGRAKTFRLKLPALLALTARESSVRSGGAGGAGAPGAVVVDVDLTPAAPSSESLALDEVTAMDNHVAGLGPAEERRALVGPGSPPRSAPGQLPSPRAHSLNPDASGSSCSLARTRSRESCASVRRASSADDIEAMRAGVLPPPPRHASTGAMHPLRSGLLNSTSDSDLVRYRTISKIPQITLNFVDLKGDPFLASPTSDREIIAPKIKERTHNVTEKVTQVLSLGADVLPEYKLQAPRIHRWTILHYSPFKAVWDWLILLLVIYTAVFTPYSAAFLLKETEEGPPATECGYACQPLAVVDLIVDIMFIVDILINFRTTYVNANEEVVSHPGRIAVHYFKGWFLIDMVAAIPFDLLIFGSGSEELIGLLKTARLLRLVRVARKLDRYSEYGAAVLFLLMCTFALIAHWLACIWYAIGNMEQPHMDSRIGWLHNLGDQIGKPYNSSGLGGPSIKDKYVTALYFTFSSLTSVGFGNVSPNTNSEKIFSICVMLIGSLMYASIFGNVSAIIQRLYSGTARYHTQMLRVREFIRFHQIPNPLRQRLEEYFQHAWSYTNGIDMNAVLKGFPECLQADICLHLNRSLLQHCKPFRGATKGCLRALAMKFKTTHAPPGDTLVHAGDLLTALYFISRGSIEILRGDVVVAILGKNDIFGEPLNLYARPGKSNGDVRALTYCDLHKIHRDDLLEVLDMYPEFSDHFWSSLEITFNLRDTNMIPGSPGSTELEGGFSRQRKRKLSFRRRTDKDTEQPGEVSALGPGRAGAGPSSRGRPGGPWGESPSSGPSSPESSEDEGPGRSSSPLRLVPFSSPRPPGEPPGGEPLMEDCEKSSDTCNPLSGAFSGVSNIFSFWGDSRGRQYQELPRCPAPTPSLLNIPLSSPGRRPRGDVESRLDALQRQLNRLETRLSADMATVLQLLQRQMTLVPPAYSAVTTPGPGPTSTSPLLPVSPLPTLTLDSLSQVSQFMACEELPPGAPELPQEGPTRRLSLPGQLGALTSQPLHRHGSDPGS
Protocol: as §1, §2, §3, §4, §5, §6

IC50 (hH1 Na+ current) | IC50 (Kv1.5) | IC50 (Kv4.2) | Structure (SMILES) | IC50 (HERG)
1 µM | 0.1 µM | 0.8 µM | CCc1cn2cccc(OCCCc3ccc(Cl)cc3Cl)c2n1 [Compound 4, 8-[3-(2,4-DICHLOROPHENYL)PROPOXY]-2-ETHYLIMIDAZO[1,2-α]PYRIDINE MONOHYDROCHLORIDE] | 0.02 µM
239 µM | 170 µM | 71 µM | Clc1ccc(CCCOc2cccn3cc(-c4ccccc4)nc23)c(Cl)c1 [Compound 5, 8-[3-(2,4-DICHLOROPHENYL)PROPOXY]-2-PHENYLIMIDAZO[1,2-α]PYRIDINE MONOHYDROCHLORIDE] | 0.9 µM
0.3 µM | 0.8 µM | 0.9 µM | Cc1cn2cccc(OCCCc3c(Cl)cccc3Cl)c2n1 [Compound 6, 8-[3-(2,6-DICHLOROPHENYL)PROPOXY]-2-Methylimidazo[1,2-α]PYRIDINE MONOHYDROCHLORIDE] | 0.3 µM
15 µM | 5 µM | 10 µM | Cc1cn2cccc(OCc3ccccc3C(F)(F)F)c2n1 [Compound 7, 2-METHYL-8-[2-(TRIFLUOROMETHYL)BENZYLOXY]IMIDAZO[1,2-α]PYRIDINE MONOHYDROCHLORIDE] | 0.8 µM
1210 µM | 0.8 µM | 11 µM | Cc1cn2cccc(OCc3ccc(Cl)cc3Cl)c2n1 [Compound 8, 8-[2,4-DICHLOROBENZYLOXY]-2-METHYLIMIDAZO[1,2-α]PYRIDINE MONOHYDROCHLORIDE] | 0.4 µM
152 µM | 11 µM | 14 µM | Cc1cn2cccc(OCCCOCc3ccccc3)c2n1 [Compound 11, 8-[3-BENZYLOXY-1-PROPOXY]-2-METHYLIMIDAZO[1,2-α]PYRIDINE MONOHYDROCHLORIDE] | 0.08 µM
3 µM | 0.6 µM | 1 µM | Cc1cn2cccc(OCCC(c3ccccc3)c3ccccc3)c2n1 [Compound 12, 8-[3,3-DIPHENYL-1-PROPOXY]-2-METHYLIMIDAZO[1,2-α]PYRIDINE MONOHYDROCHLORIDE] | 0.004 µM
8 µM | 0.7 µM | 3 µM | Cc1cn2cccc(OCC3(c4ccccc4)CC3)c2n1 [Compound 13, 2-METHYL-8-[(1-PHENYL-CYCLOPROPYL)METHOXY]IMIDAZO[1,2-α]PYRIDINE MONOHYDROCHLORIDE] | 0.4 µM
8 µM | 0.1 µM | 0.6 µM | FC(F)(F)c1cn2cccc(OCCCc3ccc(Cl)cc3Cl)c2n1 [Compound 15, 8-[3-(2,4-DICHLOROPHENYL)PROPOXY]-2-(TRIFLUOROMETHYL)IMIDAZO[1,2-α]PYRIDINE MONOHYDROCHLORIDE] | 1 µM
 | 4 µM |  | Cc1nc2c(OCC3(c4ccccc4)CC3)cccn2c1CO [Compound 31, {2-METHYL-8-[(1-PHENYLCYCLOPROPYL)METHOXY]IMIDAZO[1,2-α]PYRIDIN-3-yl}-METHANOL MONOHYDROCHLORIDE] | 3 µM
 | 4 µM |  | Cc1cn2c(C)ccc(OCCCc3ccccc3)c2n1 [Compound 32, 2,5-DIMETHYL-8-(3-PHENYLPROPOXY)IMIDAZO[1,2-α]PYRIDINE MONOHYDROCHLORIDE] | 0.3 µM
 | 3 µM |  | Cc1cn2c(C)ccc(OCC3(c4ccccc4)CC3)c2n1 [Compound 33, 2,5-DIMETHYL-8-[(1-PHENYL-CYCLOPROPYL)METHOXY]IMIDAZO[1,2-α]PYRIDINE MONOHYDROCHLORIDE] | 0.9 µM
 | 1 µM |  | Cc1cn2c(C)ccc(OCCCc3ccc(Cl)cc3Cl)c2n1 [Compound 34, 8-[3-(2,4-DICHLOROPHENYL)PROPOXY]-2,5-DIMETHYLIMIDAZO[1,2-α]PYRIDINE MONOHYDROCHLORIDE] | 0.04 µM
 | 18 µM |  | Cc1nc2c(OCCCc3ccc(Cl)cc3Cl)cccn2c1C(=O)O [Compound 37, SODIUM 8-[3-(2,4-DICHLOROPHENYL)PROPOXY]-2-METHYLIMIDAZO[1,2-α]PYRIDINE-3-CARBOXYLATE] | 4 µM
 | 0.4 µM |  | CC(C)c1cn2cccc(OCC3(c4ccccc4)CC3)c2n1 [Compound 38, 2-ISOPROPYL-8-[(1-PHENYL-CYCLOPROPYL)METHOXY]IMIDAZO[1,2-α]PYRIDINE MONOHYDROCHLORIDE] | 1 µM
 | 0.7 µM |  | Cc1nc2c(OCC3(c4ccccc4)CC3)cccn2c1Cl [Compound 39, 3-CHLORO-2-METHYL-8-[(1-PHENYL-CYCLOPROPYL)METHOXY]IMIDAZO[1,2-α]PYRIDINE MONOHYDROCHLORIDE] | 3 µM
 | 23 µM |  | Cc1nc2c(OCC3(c4ccccc4)CC3)cccn2c1CN(C)C [Compound 40, 3-(DIMETHYLAMINO)METHYL-2-METHYL-8-[(1-PHENYL-CYCLOPROPYL)METHOXY]-IMIDAZO[1,2-α]PYRIDINE DIHYDROCHLORIDE] | 1 µM
 | 5 µM |  | CC(=O)Nc1c(C)nc2c(OCCCc3ccc(Cl)cc3Cl)cccn12 [Compound 41, 3-ACETAMIDO-8-[3-(2,4-DICHLOROPHENYL)PROPOXY]-2-METHYLIMIDAZO[1,2-α]PYRIDINE MONOHYDROCHLORIDE] | 0.6 µM
 | 1.6 µM |  | Cc1nc2c(OCC3(c4ccccc4)CC3)cccn2c1N [Compound 43, 3-AMINO-2-METHYL-8-[(1-PHENYL-CYCLOPROPYL)METHOXy]IMIDAZO[1,2-α]PYRIDINE MONOHYDROCHLORIDE] | 0.7 µM

Structure (SMILES) | IC50 (hH1 Na+ current) | IC50 (Kv1.5) | IC50 (Kv4.2) | IC50 (HERG)
Cc1cn2cccc(OCCCC3CCCCC3)c2n1 [Compound 9, 8-[(3-CYCLOHEXYL)PROPOXY]-2-METHYLIMIDAZO[1,2-α]PYRIDINE MONOHYDROCHLORIDE] | 14 µM | 1 µM | 3 µM | 0.05 µM
Cc1cn2cccc(OCCCCCc3ccccc3)c2n1 [Compound 10, 2-METHYL-8-[5-PHENYL-1-PENTOXY]IMIDAZO[1,2-α]PYRIDINE MONOHYDROCHLORIDE] | 12 µM | 0.8 µM | 1 µM | 0.1 µM
